Measured values published in patent publication US20190125701A1 (priority 2016, published 2019).
“Also recorded” adds a separate entry of the source.

Assays:
mCMV [1] = assay: Plaque size assay; details: varying drug concentrations, measured 5 dpi
mCMV [2] = assay type: in vivo, mouse; details: for parameters of somatic development: body and tail length, eyelid opening, fur maturation; for CMV load in liver and lungs: treated PND 1 to 10, plaque assay at PND 12
mCMV [3] = details: for antiviral activity after drug removal: 24 hrs pre-treatment, compounds removed before virus inoculation; for effect on mCMV infection: cells pre-treated with drug prior to mCMV inoculation; for CMV inhibition with delayed drug addition: compounds added 2 to 12 hours after virus inoculation; for number of infected cells: drug at low concentration (100 μM) present 0-48 hpi, NIH/3T3, MOI 0.1
hCMV [4] = assay: Quantification of hCMV-GFP infection in normal human dermal fibroblasts and U-373 glioblastoma cells; details: pre-treatment prior to hCMV-GFP inoculation
CMV IE1/2 promoter = details: NIH/3T3, VPD 1 mM for 24 hours, plasmid transfection
Experimental: To investigate the effects on the immediate early phase of viral replication, NIH/3T3 cells exposed to VPD (1 mM) for 24 hours, were transfected with a CMV promoter (IE1/IE2)-driven reporter plasmid (pCMV-tdTomato) expressing the red fluorescent protein tdTomato.

mCMV [5] = assay: Ethidium homodimer (EthD-1) cytotoxicity assay of mCMV-infected NIH/3T3 cells; details: NIH/3T3, 24 hrs pre-treatment, MOI 0.4, 72 hpi
[6] = cited from earlier work
mCMV [7] = assay: Viral yield reduction assay after short drug exposure; details: 100 μM for 2 hrs at viral challenge, supernatants at 72 hpi
Sindbis virus (SIN) = assay type: cell-based
[8] = tested on: Vesicular Stomatitis Virus; assay type: cell-based, VSV
mCMV [9] = assay: Viral binding and fusion experiments (4° C./37° C. shift); details: 100 μM, NIH/3T3, MOI 0.1, infectivity at 48 hpi
mCMV [10] = assay: Virucidal activity assay on free virions; details: 100 μM with undiluted mCMV for 2 hours at 4° C. or 37° C., then diluted to 10 nM
mCMV [11] = assay: Three-chamber test of sociability and social novelty; assay type: in vivo, mouse; details: 5 weeks of age
Source text: Sociability and preference for social novelty were investigated at 5 weeks of age in a three-compartment apparatus (Yang, et al., 2011, Curr. Protoc. Neurosci. Chapter 8:Unit 8.26). Initially, test and control animals were allowed to explore the apparatus freely for a 10-min period (habituation). For the social approach paradigm, an unfamiliar conspecific (same sex, similar age and weight) animal was placed into one of the side compartments and restrained by a small wire object (‘social cage’). The compartment on the other side contained an empty wire object (‘empty cage’). The test subject was then released into the center compartment and allowed to explore the three-compartment apparatus freely for 10 min. Behavior was videotaped and assessed for the time(s) that the test subject spent in the three compartments and in close proximity to the social and empty cages. For the social-novelty paradigm, another unfamiliar conspecific animal was placed in the previously empty wire object (‘novel cage’). The behavior of the test mouse was recorded for 10 min and assessed for the time spent exploring the known and novel conspecifics.

hCMV [12] = assay: hCMV virus yield reduction assay in human fetal astrocytes; assay type: cell-based, human CMV
Source text: In the virus yield reduction assay, after viral adsorption, cells were washed twice with PBS and replenished with fresh medium containing the compounds to be tested. At 72 hpi medium was collected and titered by plaque assay using HDF monolayers to assess the drug-mediated inhibition of virus replication in human fetal brain astrocytes.

mCMV [13] = assay: Hindlimb clasping test; details: P28-P30
[14] = tested on: Vesicular Stomatitis Virus; details: Ornaghi, et al., 2016; cited from earlier work
hCMV [15] = assay: hCMV infectivity assay in human fetal astrocytes; details: 100 μM, 1 h pre-treatment, MOI 0.1, 48 hpi
mCMV [16] = details: P2 to P14
mCMV [17] = assay: Exploratory activity in adapted small open field; assay type: in vivo, mouse; details: P30-40, 3-min session
mCMV [18] = assay: Challenging beam traversal test; assay type: in vivo, mouse; details: P28-P30
mCMV [19] = assay: Vertical pole test; assay type: in vivo, mouse; details: P28-P30; 3 out of 20 infected untreated failed
Experimental: Briefly, mice were individually placed head-downward at the top of a vertical rough-surfaced pole (diameter, 8 mm; height, 55 cm) and allowed to descend in a round of habituation. Then, mice were placed head-upward at the top of the pole. The time required for the animal to descend to the floor was recorded as the locomotor activity time (TLA), with a maximum duration of 120 seconds. If a mouse fell, was unable to turn downward or was unable to climb down, a default locomotor activity time value was recorded as 120 seconds. Each mouse was given three trials with a 30 second-recovery period between trials.

hCMV [20] = assay: hCMV attachment and internalization in human fetal astrocytes by qPCR; details: 100 μM

Compound	CMV plaque size (mCMV [1])	parameters of somatic development (mCMV [2])	CMV load in liver and lungs (mCMV [2])	antiviral activity after drug removal (mCMV [3])	effect on mCMV infection (mCMV [3])	CMV inhibition with delayed drug addition (mCMV [3])	number of infected cells (mCMV [3])	effect on human CMV infection (hCMV [4])	virus production (mCMV [7])	CMV binding to cells (mCMV [9])	virucidal activity on virions (mCMV [10])	also measured
CCC(C)C(C(N)=O)C(C)C (stereo not shown) [SID, 2-isopropyl-3-methylpentanamide]	reduced	–	–	–	–	–	–	–	–	–	–	–
CCCC(CCC)C(N)=O [VPD, 2-propylpentanamide]	reduced	markedly improved	markedly decreased	loss of antiviral activity	robust dose-dependent inhibitory effect	no inhibition	50%	inhibited human CMV infection	significantly decreases virus production	inhibit CMV binding to cells	No direct inactivation of virions	number of red (tdTomato) cells compared to control (CMV IE1/2 promoter): 96%±4%; viral-mediated cell death / cell survival (mCMV [5]): increased cell survival; fraction metabolized to VPA ([6]; humans): > 80%; SIN infection compared to control (Sindbis virus (SIN)): 107%±3%; VSV infection compared to control [8]: 101%±5%
CCCC(C(N)=O)C(C)CC (stereo not shown) [SPD, 3-methyl-2-propylpentanamide]	slightly more effective than either valpromide or valnoctamide; also recorded: reduced	–	–	–	–	–	–	–	–	–	–	–
ivermectin	–	–	–	–	–	–	–	–	–	–	–	CMV infection compared to control (mCMV [3]; ivermectin used at 1 μM, CMV type not stated): 99%±9%
CCC(C)C(CC)C(N)=O (stereo not shown) [VCD, 2-ethyl-3-methylpentanamide]	reduced	markedly improved	markedly decreased	loss of antiviral activity	inhibited	no inhibition	50%	inhibited	significantly decreases virus production	inhibit CMV binding to cells	No direct inactivation of virions	preference for social novelty (mCMV [11]): restored social novelty responses; reduction in viral titer (hCMV [12]; 100 μM VCD versus vehicle): approximately 100 fold; viral titer (hCMV [12]; 100 μM VCD, MOI 0.1, vehicle 4.92×10^5±5.84×10^4): 6.31×10^3±3.06×10^3 PFU/ml; hindlimb clasping response (mCMV [13]): completely reversed this altered behavior; antiviral effect on vesicular stomatitis virus [14]: no antiviral effect; hCMV infectivity (GFP-positive cells) (hCMV [15]): substantially decreased hCMV infectivity; conversion to corresponding free acid (valnoctic acid) ([6]; in vivo): little conversion; acquisition of neurological milestones in infected pups (mCMV [16]): timely acquisition of neurological milestones; rearing and nose-poking events (mCMV [17]): Normal levels of exploratory activity were restored; beam traversal time and number of slips (mCMV [18]): significantly improved the coordination and balance; mice failing the vertical pole test (mCMV [19]): no VCD-treated mice or uninfected controls failed; decrease of virus bound to the cell surface versus control (hCMV [20]; 4° C.): 60%; CMV fusion/internalization (hCMV [20]; 37° C.): did not appear to block CMV fusion/internalization
